The values that follow come from paper PMC8728392, “Synthesis, Anticancer Assessment, and Molecular Docking of Novel Chalcone-Thienopyrimidine Derivatives in HepG2 and MCF-7 Cell Lines” (Oxidative Medicine and Cellular Longevity, 2021).

The test system of one series is HepG2 cell line. The experiment in a line: Cell cycle analysis (PI, flow cytometry). In kind it is cell-based, human. The method, then:
Cell cycle analysis was performed to decide if the newly synthesized thienopyrimidine derivatives arrested the cell cycle and at what phase of the cell cycle, the HepG2 and MCF-7 cell lines were arrested. The experiments were performed as previously described by Tolba et al.. HepG2 and MCF-7 cell lines were seeded and incubated with the tested compounds in 6-well plates. After incubation overnight, the cells were washed twice with ice-cold phosphate-buffered saline (PBS), detached by EDTA-trypsinization from the plates, harvested by centrifugation, fixed in ice-cold 70% (v/v) ethanol, and washed with phosphate-buffered saline (PBS, pH 7.2 ± 0.2). The cells were resuspended with 0.1 mg/ml RNase, stained with […] propidium iodide (PI), and analyzed by flow cytometry using a FACSCalibur flow cytometer (BD Biosciences, San Jose, CA). CellQuest software (Becton Dickinson) was used to determine the cell cycle distributions after incubation with 5-FU or tested compounds. Exposure of HepG2 and MCF-7 cell lines to these compounds could interfere with the normal cell cycle distribution.
For orientation: Flow cytometry measures light scatter and fluorescence of single cells or particles in a stream.

A further series concerns HepG2 cells. The experiment in a line: Annexin V-FITC/PI apoptotic assay. In kind it is cell-based, human. From the text:
(§1) Annexin V-fluorescein isothiocyanate (FITC) and counterstaining with propidium iodide (PI) using the Annexin V-FITC/PI apoptosis detection kit (BD Biosciences, San Diego, CA) were employed to distinguish early and late apoptotic cells according to the manufacturer's directions. Annexin V conjugated with fluorescein isothiocyanate was used to quantify the loss of phosphatidylserine asymmetry in cell membranes involved in apoptosis, and propidium iodide can distinguish between early apoptosis, late apoptotic, and necrotic cells. Analyses were achieved by using a FACSCalibur flow cytometer (BD Biosciences, San Jose, CA).
(§2) Cells were gently washed twice with PBS accompanied by tryptic digestion (0.25% trypsin/EDTA) and washed yet again with PBS. All the cells including the floating and adherent ones were harvested, pooled and stained with […] in 1× binding buffer for 15 min at room temperature in the dark. Analyses were achieved by FACS Calibur flow cytometer (BD Biosciences, San Jose, CA).

A further series has as its system MCF-7 cell line. Nature of the series: Annexin V-FITC/PI apoptotic assay. Type of series: cell-based, human.
Description: as §1, §2

Series [1] has as its system Bax, Bcl-2, caspase-3, and caspase-9 in HepG2. The experiment in a line: RT-PCR relative expression of apoptosis markers. Conditions: IC50, 8-hour incubation, vs control. In kind it is cell-based, human. From the text:
We determined the effect of IC50 concentration of newly synthesized thienopyrimidine derivatives (3a-e and 3g and 3b and 3g) on the relative expression levels of some markers of apoptosis in HepG2 and MCF-7 cell lines, respectively. These included the antiapoptotic marker Bcl-2 as well as the apoptotic markers Bax, caspase-3, and caspase-9 [33]. BIORAD iScript™ One-Step RT-PCR kit with SYBR® Green was used to assess the relative levels of expression of apoptosis markers. The measurement was carried out according to the technique of reverse transcription polymerase chain reaction (RT-PCR) using the Rotor-Gene RT-PCR system, and the method of the used kit was done based on the manufacturer's instructions. The procedure of this assay included the following:
Based on the manufacturer's instructions, the Qiagen RNeasy Extraction Kit (Qiagen Ltd., UK) was used to isolate mRNA from approximately 1 × 10^7 cells according to the cell line.
Mix all the following reagents to get the total volume (50 μl): 2X SYBR® Green RTPCR reaction mixture (25 μl), forward primer […] (1.5 μl), reverse primer […] (1.5 μl), nuclease-free water (11 μl), RNA template (1 pg-100 ng total RNA) (10 μl), and iScript reverse transcriptase (1 μl) for One-Step RT-PCR.
The thermal cycler (Rotor-Gene) program used was as follows: one cycle for reverse transcription at 50°C for 10 minutes and one cycle for RT inactivation/Hot-start activation at 95°C for 5 minutes and then 45 cycles for qPCR (10 s at 95°C, 30 seconds for annealing at 55°C, and 30 seconds for extension at 72°C), and this is followed by the final extension (one cycle) at 72°C for 10 minutes.

Series [2] concerns human breast cancer cell line (MCF-7). Nature of the series: MTT assay, cytotoxicity. In kind it is cell-based. Conditions: MCF-7, 24 hours. As to the method:
(§3) Cancer cell lines were manipulated according to the method described by Sigounas et al.. In this method, the cell lines were grown as adherent monolayers in T75 flasks with Dulbecco's modified Eagle's medium (DMEM) supplemented with 10% Fetal Bovine Serum (FBS), 2 mM L-glutamine, and 1% streptomycin/penicillin. The cells were left to grow in a CO2 incubator at 37°C, 5% CO2, and 95% humidity until their confluence.
(§4) The 3-[4,5-dimethylthiazol-2-yl]-2,5-diphenyltetrazolium bromide (MTT) colorimetric assay was used to examine the sensitivity of cells to tested compounds (as anticancer drugs), as previously described. This assay depends on the production of a purple formazan derivative from the yellow tetrazolium bromide (MTT) by mitochondrial succinate dehydrogenase in viable cells. The percentage of cell survival was calculated as follows: (1) Percentage of survival=O.D.treated cells/O.D.control cells×100.
(§5) For preliminary screening of the cytotoxicity of synthesized compounds 3a-g, cells exposed to DMSO were used as a control. Plotting the relationship between the survival score and the compound concentration and calculating the IC50 (the concentration required to inhibit cell viability by 50%) were performed for each test compound according to Li et al. in comparison with the reference standard anticancer agent, 5-FU.
(§6) The 3-[4,5-dimethylthiazol-2-yl]-2,5-diphenyltetrazolium bromide (MTT) colorimetric assay was used to examine the sensitivity of cells to tested compounds (as anticancer drugs), as previously described by Hussein et al. (2017). This assay depend on the production of a purple formazan derivative from the yellow tetrazolium bromide (MTT) by mitochondrial succinate dehydrogenase in viable cells. Briefly, after harvesting the cells with 0.25% trypsin, the cell lines were suspended in DMEM. Cells were seeded in 96-well microtiter plates at a concentration of 5×10^4 cell/well in a fresh medium and left to attach to the plates for 24 h before treatment with the tested compounds 3a-g. Test compounds were dissolved in dimethyl sulfoxide (DMSO). After 24 hours, cells were incubated with the appropriate concentration ranges of compounds, the wells were diluted to […] with fresh medium and incubation was continued for 24 hours. Three wells were used for each concentration. After 24 hours of treatment, 20 μl of MTT solution (5mg/ml) was added and subsequently the plates were further incubated for 4 hours to allow the viable cells to biotransform the yellow-colored MTT into purple formazan crystals. The optical density (O.D.) of each well was measured spectrophotometrically at […] with an enzyme-linked immunosorbent assay (ELISA) microplate reader (BioTek, EL-800, USA). The percentage of cell survival was calculated as follows: […]
(In general: Tetrazolium dyes change colour on reduction, which living cells bring about.)

Series [3] relates to human liver cancer cell line (HepG2). The experiment in a line: MTT assay, cytotoxicity. Type of series: cell-based. To be noted: HepG2, 24 hours. As to the method:
as §3, §4, §5, §6

Series [4] has as its system A549 human lung adenocarcinoma cells. On the set-up: method as in PMID 29660690. Conditions: cited from earlier work.

In general, melting point refers to the temperature, or range, at which the solid turns liquid. The molecule `CCOC(=O)Cn1c(SCC(=O)Nc2ccc(C(=O)/C=C\c3ccccc3Cl)cc2)nc2sc3c(c2c1=O)CCN(C(=O)OCC)C3` [Compound 3a, Ethyl (Z)-2-((2-((4-(3-(2-Chlorophenyl)acryloyl)phenyl)amino)-2-oxoethyl)thio)-3-(2-ethoxy-2-oxoethyl)-4-oxo-3,5,6,8-tetrahydropyrido[4′,3′:4,5]thieno[2,3-d]pyrimidine-7(4H)-carboxylate] yielded a melting point of 181 to 182 °C. Further, in the series with HepG2 cell line, the “cell population in G2/M compared with control cells” value is listed as “substantial increase” and the “cell population in pre-G1 phases compared with control cells” value is recorded as “significant increase”. Moreover, in the series on HepG2 cells, the “early and late apoptosis” value was “significantly exhibited early and late apoptosis”. In addition, the “total, early, and late apoptosis as well as necrosis relative to the control cells” value in the series with MCF-7 cell line was “significant increase”. Also, the “expression levels of Bcl-2” value in series [1] is listed as “noticeably decreased”. The “survival percentage (mean ± SEM)” value in series [2] (4.8828125 μg/ml) stood at 150.0 ± 0.171%. The “survival percentage (mean ± SEM)” value in series [2] (9.765625 μg/ml) is reported as 132.9 ± 0.132%. Moreover, the “survival percentage (mean ± SEM)” value in series [2] (19.53125 μg/ml) stood at 124.4 ± 0.079%. Moreover, the “survival percentage (mean ± SEM)” value in series [2] (39.0625 μg/ml) is recorded as 129.1 ± 0.038%. For the same molecule, in series [2] (78.125 μg/ml), the “survival percentage (mean ± SEM)” value came out at 108.4 ± 0.084%. Also, the “survival percentage (mean ± SEM)” value in series [2] (156.25 μg/ml) was 101.8 ± 0.284%. Moreover, the “survival percentage (mean ± SEM)” value in series [2] (312.5 μg/ml) was 101.6 ± 0.022%. In addition, the “survival percentage (mean ± SEM)” value in series [2] (625 μg/ml) stood at 64.9 ± 0.008%. In series [2] (1250 μg/ml), the “survival percentage (mean ± SEM)” value is reported as 9.8 ± 0.003%. For the same molecule, in series [2] (2500 μg/ml), the “survival percentage (mean ± SEM)” value amounted to 6.28 ± 0.003%. In series [2] (5000 μg/ml), the “survival percentage (mean ± SEM)” value came to 6.0 ± 0.001%. Also, in series [2] (10000 μg/ml), the “survival percentage (mean ± SEM)” value was 6.0 ± 0.063%. The “survival percentage (mean ± SEM)” value in series [3] (4.8828125 μg/ml) is 103.5 ± 0.033%. Also, the “survival percentage (mean ± SEM)” value in series [3] (9.765625 μg/ml) worked out at 87.8 ± 0.087%. Further, in series [3] (19.53125 μg/ml), the “survival percentage (mean ± SEM)” value is recorded as 74.2 ± 0.012%. In addition, the “survival percentage (mean ± SEM)” value in series [3] (39.0625 μg/ml) stood at 73.8 ± 0.019%. Also, the “survival percentage (mean ± SEM)” value in series [3] (78.125 μg/ml) is 66.9 ± 0.018%. In series [3] (156.25 μg/ml), the “survival percentage (mean ± SEM)” value is given as 40.1 ± 0.021%. In addition, the “survival percentage (mean ± SEM)” value in series [3] (312.5 μg/ml) turned out to be 28.4 ± 0.009%. The “survival percentage (mean ± SEM)” value in series [3] (625 μg/ml) is given as 21.7 ± 0.012%. In addition, the “survival percentage (mean ± SEM)” value in series [3] (1250 μg/ml) is given as 20.5 ± 0.004%. The “survival percentage (mean ± SEM)” value in series [3] (2500 μg/ml) came out at 19.5 ± 0.001%. Moreover, the “survival percentage (mean ± SEM)” value in series [3] (5000 μg/ml) was 19.1 ± 0.001%. Besides, the “survival percentage (mean ± SEM)” value in series [3] (10000 μg/ml) is recorded as 18.5 ± 0.001%.

One may read the IC50 as the concentration that gives 50% inhibition. For `N.N.[Cl][Pt][Cl]` [cisplatin], the IC50 in series [4] was 15.3 µM.

As for `C=CCn1c(SCC(=O)Nc2ccc(C(=O)/C=C/c3cc(OC)c(OC)c(OC)c3)cc2)nnc1-c1ccc(OC)cc1` [compound I], the 50% inhibitory concentration (IC50) in series [4] was 4.4 µM.

Take “Ethyl (Z)-2-(Ethoxymethyl)-4-oxo-3-(2-oxo-2-((4-(3-(2,3,4-trimethoxyphenyl)acryloyl)-phenyl)amino)ethyl)-3,5,6,8-tetrahydropyrido[4′,3′:4,5]thieno[2,3-d]pyrimidine-7(4H)-carboxylate [Compound 3d]”: the “S phase cell population” value in the series on HepG2 cell line is given as “significant (P < 0.05) increase”. Besides, in the series with HepG2 cell line, the “cell population in pre-G1 phases compared with control cells” value is listed as “significant increase”. Also, in series [1], the “expression levels of Bcl-2” value is recorded as “noticeably decreased”. Moreover, the “survival percentage (mean ± SEM)” value in series [2] (4.8828125 μg/ml) is recorded as 133.8 ± 0.227%; in series [2] (9.765625 μg/ml) it was 146.0 ± 0.065%; in series [2] (19.53125 μg/ml) it was 133.2 ± 0.116%; in series [2] (39.0625 μg/ml), 132.7 ± 0.231%; in series [2] (78.125 μg/ml), 113.1 ± 0.171%; in series [2] (156.25 μg/ml), 103.1 ± 0.202%. The “survival percentage (mean ± SEM)” value in series [2] (312.5 μg/ml) turned out to be 35.3 ± 0.044%; in series [2] (625 μg/ml), 26.5 ± 0.120%; in series [2] (1250 μg/ml) it was 8.5 ± 0.006%; in series [2] (2500 μg/ml) it was 6.2 ± 0.005%; in series [2] (5000 μg/ml) it was 6.12 ± 0.003%; in series [2] (10000 μg/ml) it was 5.8 ± 0.001%. In addition, the “survival percentage (mean ± SEM)” value in series [3] (4.8828125 μg/ml) was 123.0 ± 0.026%; in series [3] (9.765625 μg/ml), 111.0 ± 0.041%; in series [3] (19.53125 μg/ml), 99.2 ± 0.026%; in series [3] (39.0625 μg/ml), 91.2 ± 0.138%; in series [3] (78.125 μg/ml), 31.0 ± 0.017%; in series [3] (156.25 μg/ml) it was 20.5 ± 0.002%. The “survival percentage (mean ± SEM)” value came out at 20.5 ± 0.002% in series [3] (312.5 μg/ml); 20.0 ± 0.001% in series [3] (625 μg/ml); 19.5 ± 0.001% in series [3] (1250 μg/ml); 19.4 ± 0.004% in series [3] (2500 μg/ml); 18.5 ± 0.003% in series [3] (5000 μg/ml); 18.4 ± 0.002% in series [3] (10000 μg/ml).
